From ChEMBL document CHEMBL3044970, “Isoniazid: the magic molecule” (2012) come the findings set out here.

Format in all cases: functional
The test system of test [1] is Mycobacterium tuberculosis. The test is described as follows: Ratio of INH MIC to compound MIC for INH-resistant Mycobacterium tuberculosis.
Test [2] relates to Mycobacterium tuberculosis. The test is described as follows: Antimicrobial activity against INH-resistant Mycobacterium tuberculosis.
The subject of test [3] is Mycobacterium tuberculosis. Kind of test: Antimicrobial activity against INH-resistant Mycobacterium tuberculosis by agar dilution method relative to isonicotinoyl hydrazide. For orientation: Agar dilution tests growth on a series of plates holding different concentrations.
The subject of test [4] is Mycobacterium tuberculosis. The test is described as follows: Antimicrobial activity against drug-resistant Mycobacterium tuberculosis infected in macrophages.
The nature of test [5]: Selectivity ratio of MIC for Mycobacterium tuberculosis H37Rv to MIC for INH-resistant Mycobacterium tuberculosis clinical isolate.

Values after ≈ are worked out from the molar mass of the structure shown.

In the case of `COc1cc(C2=NN(C(=O)c3ccncc3)C(c3ccc(O)cc3)C2)ccc1OCC(=O)O` (stereo unspecified), the Ratio in test [1] is recorded as 78. Also, the MIC in test [2] came out at 0.12 µM (≈ 0.0537 µg/mL). With `O=C(NNC(=S)Nc1ccccc1C(F)(F)F)c1ccncc1`, the Ratio in test [3] was 157. This molecule also had an MIC in test [2] of 0.58 µM (≈ 0.197 µg/mL).

Consider `C/C(=N\NC(=O)c1ccncc1)c1cccc(F)c1`, for which the MIC in test [4] is below 0.05 µg/mL.

For `O=C(c1ccncc1)N1N=C(c2ccco2)CC1(O)C(F)(F)F` (stereo unspecified), the Selectivity ratio in test [5] came to 2.
